Assay results taken from US20060035966A1, “Irreversible selective androgen receptor modulators and methods of use thereof” (priority 2002, published 2006).
Read-outs that look alike come from different tables or passages of the source.

Columns and labels:
HT-29 cells = experiment: Induction of apoptosis, HT-29; type: cell-based, human
Description: (§1) The ability of DJ 1-31, DJ 1-29, S-NTBA and Compound V to induce apoptosis in different prostate cancer cell lines (DU 145, PC-3, TSU, PPC-1 and LNCaP), in other cancer cell lines (TCCSUP, HT-29 and MCF-7) and in a control cell line (CV-1) was determined and the results are shown in Table 6.

[1] = system: MCF-7 breast adenocarcinoma cell line; experiment: Cytotoxicity, SRB assay, MCF-7; type: cell-based; details: Homo sapiens, Example 4
Description: (§2) The SRB Assay was used to determine cell number during cytotoxocity experiments. The following protocol was used: • 1. Cells were detached with 0.25% trypsin. • 2. Experimental cultures were cultured in 96-well microtiter plates (200 uL growth medium per well; 1,000-200,000 cells per well). • 3. Cultures were fixed with 50 uL 50% TCA (4° C.). (see cell fixation protocol for details). • 4. Fixed cells were stained with 50 uL 0.4% (wt/vol) SRB in 1% acetic acid for 10 minutes. • 5. SRB was removed and the cultures were quickly* rinsed 5 times with 1% acetic acid to remove unbound dye.** • 6. Cultures were air-dried overnight until there is no visible moisture. • 7. The cellular protein-bound SRB was dissolved with 200 uL unbuffered Tris base (10 mM, pH 10.5) for 30 minutes on a rocking platform shaker. • 8. Absorbance was read at 540 nm. • * quickly performing rinsing process is to prevent desorption of protein-bound SRB • ** completely remove residual wash solution by sharply flicking plates over sink. Fixation of Cells Attached to the Plastic Substratum
(§3) The following protocol was used for fixing cells: • a. 50 uL of 50% TCA (4° C.) were gently layered on the top of growth medium in each well to make a final TCA concentration of 10%. • b. Cultures were incubated at 4° C. for 1 hour. • c. Cultures were washed 5 times with tap water to remove TCA, growth medium, low-molecular-weight metabolites, and serum protein. • d. Plates were air-dried until there was no visible moisture.

TSU cells = experiment: Induction of apoptosis, TSU; type: cell-based, human
Description: as §1

[2] = system: AR-expressing LNCaP prostate cancer cell line; experiment: Cytotoxicity, SRB assay, LNCaP; type: cell-based, human; details: for IC50: Homo sapiens, LNCaP
Description: as §2, with “Cells were detached with 0.25% trypsin. • 2.” left out, “The cellular protein-bound SRB was dissolved with 200 uL unbuffered Tris base (10 mM, pH 10.5) for 30 minutes on a rocking platform shaker. • 8.” left out
as §3

[3] = system: TCCSUP bladder cancer cell line; experiment: Cytotoxicity, SRB assay, TCCSUP; type: cell-based, human; details: Homo sapiens, TCC-SUP, read-out: IC50 TCCSUP
Description: as §2, with “Cells were detached with 0.25% trypsin. • 2.” left out, “The cellular protein-bound SRB was dissolved with 200 uL unbuffered Tris base (10 mM, pH 10.5) for 30 minutes on a rocking platform shaker. • 8.” left out
as §3

[4] = system: TSU prostate cancer cell line; experiment: Cytotoxicity, SRB assay, TSU; type: cell-based, human; details: Homo sapiens, read-out: IC50 TSU
Description: as §2, with “Cells were detached with 0.25% trypsin. • 2.” left out, “The cellular protein-bound SRB was dissolved with 200 uL unbuffered Tris base (10 mM, pH 10.5) for 30 minutes on a rocking platform shaker. • 8.” left out
as §3

TCCSUP cells = experiment: Induction of apoptosis, TCCSUP; type: cell-based, human
Description: as §1

CV-1 cells = experiment: Induction of apoptosis, CV-1; type: cell-based, African green monkey
Description: as §1

LNCaP cells = experiment: Induction of apoptosis, LNCaP; type: cell-based, human
Description: as §1

[5] = system: HT-29 colorectal adenocarcinoma cell line; experiment: Cytotoxicity, SRB assay, HT-29; type: cell-based, human; details: Homo sapiens
Description: as §2, with “Cells were detached with 0.25% trypsin. • 2.” left out, “The cellular protein-bound SRB was dissolved with 200 uL unbuffered Tris base (10 mM, pH 10.5) for 30 minutes on a rocking platform shaker. • 8.” left out
as §3

CV-1 control cell line = experiment: Cytotoxicity, SRB assay, CV-1 control; type: cell-based, African green monkey; details: Chlorocebus sabaeus, read-out: IC50 CV-1
Description: as §2, §3

MCF-7 cells = experiment: Induction of apoptosis, MCF-7; type: cell-based
Description: as §1

PC-3 cells = experiment: Induction of apoptosis, PC-3; type: cell-based, human
Description: as §1

[6] = system: DU 145 prostate cancer cell line; experiment: Cytotoxicity, SRB assay, DU 145; type: cell-based, human; details: Homo sapiens
Description: as §2, with “Cells were detached with 0.25% trypsin. • 2.” left out, “The cellular protein-bound SRB was dissolved with 200 uL unbuffered Tris base (10 mM, pH 10.5) for 30 minutes on a rocking platform shaker. • 8.” left out
as §3

[7] = system: PC-3 bone metastatic prostate cancer cell line; experiment: Cytotoxicity, SRB assay, PC-3; type: cell-based, human; details: Homo sapiens, read-out: IC50 PC-3
Description: PPC-1, LNCaP, TSU, PC-3, and DU145 were grown in PRMI-1640 medium containing 2 mM L-glutamine supplemented with 10% fetal bovine serum (FBS). Cells were maintained in a 5% CO2/95% air humidified atomosphere at 37° C.
as §2, §3

DU 145 cells = experiment: Induction of apoptosis, DU 145; type: cell-based, human
Description: as §1

PPC-1 cells = experiment: Induction of apoptosis, PPC-1; type: cell-based, human
Description: as §1

[8] = system: PPC-1 prostate cancer cell line; experiment: Cytotoxicity, SRB assay, PPC-1; type: cell-based, human; details: Homo sapiens
Description: as §2, with “Cells were detached with 0.25% trypsin. • 2.” left out, “The cellular protein-bound SRB was dissolved with 200 uL unbuffered Tris base (10 mM, pH 10.5) for 30 minutes on a rocking platform shaker. • 8.” left out
as §3

[9] = MCF7, 24 h, drug incubation time 1 day
[10] = MCF7, 96 h, drug incubation time 4 day
[11] = HT-29, 24 h, read-out: IC50 HT-29
[12] = HT-29, 96 h, read-out: IC50 HT-29
[13] = DU-145, 24 h, read-out: IC50 DU 145
[14] = DU-145, 96 h, read-out: IC50 DU 145
[15] = PPC-1, 24 h, read-out: IC50 PPC-1
[16] = PPC-1, 96 h, read-out: IC50 PPC-1

SMILES | Enrichment factor HT-29 (HT-29 cells) | IC50 [1, 9] | IC50 [1, 10] | Enrichment factor TSU (TSU cells) | IC50 ([2]; 24 h, read-out: IC50 LNCaP) | IC50 ([2]; 96 h, read-out: IC50 LNCaP) | IC50 ([3]; 24 h) | IC50 ([3]; 96 h) | IC50 ([4]; 24 h) | IC50 ([4]; 96 h) | Enrichment factor TCCSUP (TCCSUP cells) | Enrichment factor CV-1 (CV-1 cells) | Enrichment factor LNCaP (LNCaP cells) | IC50 [5, 11] | IC50 [5, 12] | IC50 (CV-1 control cell line; 24 h) | IC50 (CV-1 control cell line; 96 h) | Enrichment factor MCF-7 (MCF-7 cells) | Enrichment factor PC-3 (PC-3 cells) | IC50 [6, 13] | also measured
C[C@](O)(COc1ccc(NC(=O)CCl)cc1)C(=O)Nc1ccc([N+](=O)[O-])c(C(F)(F)F)c1 [DJ 1-31] | 1.205 | 15.8 ± 2.7 µM | 14 ± 1.1 µM | 0.848 | 2.9 ± 1.2 µM | 3.3 ± 0.4 µM | 2.1 ± 0.3 µM | 2.1 ± 0.3 µM | 1.3 ± 0.1 µM | 1.1 ± 0.1 µM | 0.471 | 0.702 | 1.374 | 5.4 ± 0.1 µM | 3.7 ± 0.7 µM | 5.8 ± 0.3 µM | 5.3 ± 0.2 µM | 0.938 | 0.594 | 1 ± 0.2 µM | IC50 [6, 14]: 0.7 ± 0.1 µM; IC50 ([7]; 24 h): 5.4 ± 0.8 µM; IC50 ([7]; 96 h): 5.3 ± 0.8 µM; Enrichment factor DU 145 (DU 145 cells): 2.500; Enrichment factor PPC-1 (PPC-1 cells): 1.312; IC50 [8, 15]: 1.9 ± 0.1 µM; IC50 [8, 16]: 1.9 ± 0.1 µM
C[C@](O)(COc1ccc(NC(=O)CBr)cc1)C(=O)Nc1ccc([N+](=O)[O-])c(C(F)(F)F)c1 [DJ 1-29] | 1.667 | 11.9 ± 0.3 µM | 12.9 ± 0.7 µM | 1.008 | 1.1 ± 0.4 µM | 1.8 ± 0.2 µM | 2.6 ± 0.4 µM | 2.5 ± 0.4 µM | 1.3 ± 0.1 µM | 1 ± 0.1 µM | 0.000 | 0.786 | 16.571 | 3.6 ± 0.4 µM | 4.4 ± 0.2 µM | 6.8 ± 0.5 µM | 7.3 ± 0.2 µM | 1.617 | 0.531 | 0.4 ± 0.1 µM | IC50 [6, 14]: 0.4 ± 0.1 µM; IC50 ([7]; 24 h): 2.3 ± 0.1 µM; IC50 ([7]; 96 h): 2.4 ± 0.4 µM; Enrichment factor DU 145 (DU 145 cells): 18.643; Enrichment factor PPC-1 (PPC-1 cells): 1.146; IC50 [8, 15]: 0.9 ± 0.1 µM; IC50 [8, 16]: 1.3 ± 0.1 µM
C[C@](O)(COc1ccc(N=C=S)cc1)C(=O)Nc1ccc([N+](=O)[O-])c(C(F)(F)F)c1 [Compound V] | 1.410 | 32.7 ± 1.9 µM | 39.4 ± 5.4 µM | 1.167 | 19.8 ± 10.5 µM | 12.8 ± 4.1 µM | 90.4 ± 2.2 µM | 78.1 ± 11.2 µM | 54.1 ± 5.5 µM | 55 ± 0.8 µM | 1.176 | 6.548 | 2.000 | 85.5 ± 4.5 µM | 71 ± 1.2 µM | > 100 µM | > 100 µM | 1.926 | 2.500 | 62.1 ± 0.6 µM | IC50 ([2]; 24 h, read-out: IC50 LNCaP 24 hr treatment): 39.6 µM; IC50 ([2]; 144 h, read-out: IC50 LNCaP 6 day treatment): 33.6 µM; IC50 ([2]; read-out: IC50 LNCaP): 26 ± 8.3 µM; Selectivity for the AR-expressing LNCaP prostate cancer cell line ([2]; compared with prostate cancer cell lines not expressing AR, non-prostate cancer cell lines, control cell line): highly selective; IC50 [3]: > 100 µM; IC50 [4]: 56.9 ± 2.9 µM; IC50 ([5]; HT-29, read-out: IC50 HT-29): 55 ± 1.7 µM; IC50 [6, 14]: 69.7 ± 6.5 µM; IC50 ([6]; DU-145, read-out: IC50 DU145): 74.8 ± 1.2 µM; IC50 ([7]; 24 h): 47.8 ± 4.2 µM; IC50 ([7]; 96 h): 48.5 ± 10.1 µM; IC50 [7]: 59 ± 6 µM; Enrichment factor DU 145 (DU 145 cells): 5.071; Enrichment factor PPC-1 (PPC-1 cells): 1.749; IC50 [8, 15]: 63.7 ± 4.6 µM; IC50 [8, 16]: 62.6 ± 4.9 µM; IC50 ([8]; PPC-1, read-out: IC50 PPC-1): 58.1 ± 5.9 µM
